The source of these data is article PMC6036094 (International Journal of Medical Sciences, 2018).

Read-outs that look alike come from different tables or passages of the source.

This data set is classed as in vivo, Male Wistar rats. The conditions noted are these: for Concentration in kidneys / Concentration in small intestine / Kidney-to-plasma concentration ratio / Skin tissue-to-plasma concentration ratio / Small intestine-to-plasma concentration ratio / Concentration in skin tissue: mean ± SD; for concentration at 1 h / concentration at 8 h / concentration at 24 h: male, Wistar, rat, po.

Setting [1] is: 1 to 24 h after oral administration.

For the molecule `Cc1ccc([C@@H]2O[C@H](CO)[C@@H](O)[C@H](O)[C@H]2O)cc1Cc1ccc(-c2ccc(F)cc2)s1` [Canagliflozin, canagliflozin], where the note is “1 h after oral administration”, the Concentration in kidneys came out at 802.7 ± 269.2 ng/g, the “Concentration in small intestine” value is 2925.2 ± 1074.2 ng/g, the Kidney-to-plasma concentration ratio is reported as 3.69±2.84 and the “Skin tissue-to-plasma concentration ratio” value turned out to be 0.18±0.18. The “Small intestine-to-plasma concentration ratio” value (1 h after oral administration) was 12.93±9.88. For the setting “8 h after oral administration”, the Concentration in kidneys was 1014.1 ± 306.0 ng/g, the “Concentration in skin tissue” value was determined as 82.6 ± 22.9 ng/g, the “Concentration in small intestine” value was found to be 440.1 ± 117.2 ng/g and the Kidney-to-plasma concentration ratio worked out at 2.11±0.54. Also, where the note is “8 h after oral administration”, the “Skin tissue-to-plasma concentration ratio” value is 0.17±0.03 and the “Small intestine-to-plasma concentration ratio” value stood at 0.92±0.20. In addition, where the note is “24 h after oral administration”, the Concentration in kidneys came to 636.2 ± 222.5 ng/g, the “Concentration in skin tissue” value came out at 20.1 ± 11.6 ng/g, the “Concentration in small intestine” value was 325.9 ± 218.0 ng/g and the Kidney-to-plasma concentration ratio is recorded as 7.55±2.62. Further, for the setting “24 h after oral administration”, the “Skin tissue-to-plasma concentration ratio” value stood at 0.26±0.20 and the “Small intestine-to-plasma concentration ratio” value was 4.05±2.83.

Regarding `CCOc1ccc(Cc2cc([C@@H]3O[C@H](CO)[C@@H](O)[C@H](O)[C@H]3O)ccc2Cl)cc1` [Dapagliflozin, dapagliflozin], where the note is “kidneys”, the concentration at 1 h is 1030 ± 521 ng/g, the concentration at 8 h was 531 ± 191 ng/g and the concentration at 24 h was determined as 170 ± 40.2 ng/g. Where the note is “skin tissue”, the concentration at 1 h is 42.6 ± 24.7 ng/g and the concentration at 8 h worked out at 13 ± 5 ng/g. Under “small intestine”, the concentration at 1 h was found to be 37.9 ± 10.3 ng/g and the concentration at 8 h came to 19.7 ± 6.7 ng/g.

For `OC[C@H]1O[C@@H](c2ccc(F)c(Cc3cc4ccccc4s3)c2)[C@H](O)[C@@H](O)[C@@H]1O` [Ipragliflozin, ipragliflozin], the “Time course of kidney-to-plasma concentration ratio” value under setting [1] is recorded as “tended to increase”. The “Time course of skin tissue-to-plasma concentration ratio” value under setting [1] is reported as “increased in a time-dependent manner”. The “Skin tissue-to-plasma concentration ratio” value turned out to be 0.45±0.20 (1 h after oral administration); 0.45 ± 0.20 (1 h after oral administration, listed as ipragliflozin); 5.82±3.66 (24 h after oral administration); 5.82 ± 3.66 (24 h after oral administration, listed as ipragliflozin). Besides, the concentration at 1 h was 1420 ± 405 ng/g (kidneys), 152 ± 53.4 ng/g (skin tissue) and 730 ± 377 ng/g (small intestine). For the same molecule, the concentration at 8 h by setting is: (kidneys) 1090 ± 456 ng/g; (skin tissue) 168 ± 28.7 ng/g; (small intestine) 348 ± 105 ng/g. The concentration at 24 h was found to be 301 ± 86.9 ng/g (kidneys) and 90.6 ± 38.9 ng/g (skin tissue, 1 mg/kg).

In the case of `CCOc1ccc(Cc2cc([C@@H]3S[C@H](CO)[C@@H](O)[C@H](O)[C@H]3O)c(OC)cc2C)cc1` [Luseogliflozin, luseogliflozin], where the note is “kidneys”, the concentration at 1 h came to 94.9 ± 74.3 ng/g and the concentration at 8 h was 80.1 ± 51.7 ng/g. The concentration at 1 h (small intestine) stood at 251 ± 178 ng/g.

As to `CCc1ccc(Cc2ccc3c(c2)[C@]2(OC3)O[C@H](CO)[C@@H](O)[C@H](O)[C@H]2O)cc1` [Tofogliflozin, tofogliflozin], the “Time course of kidney-to-plasma concentration ratio” value under setting [1] is “increased time-dependently”. The concentration at 1 h is, setting by setting: (kidneys) 848 ± 116 ng/g; (skin tissue) 103 ± 29.2 ng/g; (small intestine) 1360 ± 513 ng/g. Moreover, the concentration at 8 h stood at 492 ± 101 ng/g (kidneys), 27.1 ± 3.2 ng/g (skin tissue) and 250 ± 114 ng/g (small intestine). For the setting “kidneys”, this molecule came in with a concentration at 24 h of 201 ± 42.9 ng/g.
